Where “and” joins values, the source holds several entries; their conditions need not be identical. Equal values may be shown once.
How the values were obtained:
[1] = molecular target: T1, YES/YES1 (Homo sapiens, UniProt P07947); experiment: HotSpot in vitro kinase radiometric assay; assay type: biochemical
T1 construct: purchased Reaction Biology (HotSpot contract assay)

[2] = molecular target: ABL1 (Homo sapiens, UniProt P00519); experiment: HotSpot in vitro kinase radiometric assay; assay type: biochemical; parameters: purchased Reaction Biology (HotSpot contract assay)
[3] = tested on: HSP90AA1; conditions: cited from earlier work
[4] = molecular target: T2, ABL2/ARG (Homo sapiens, UniProt P42684); experiment: HotSpot in vitro kinase radiometric assay; assay type: biochemical
T2 construct: purchased Reaction Biology (HotSpot contract assay)

[5] = tested on: HSP90AB1; parameters: method as in ChEMBL23 (accessed: 23/08/2018); conditions: average of reported values; ref ChEMBL23 (accessed: 23/08/2018); cited from earlier work
[6] = molecular target: T3, FYN (Homo sapiens, UniProt P06241); experiment: HotSpot in vitro kinase radiometric assay; assay type: biochemical
T3 construct: purchased Reaction Biology (HotSpot contract assay)

[7] = molecular target: T4, TRKC (Homo sapiens, UniProt Q16288); experiment: HotSpot in vitro kinase radiometric assay; assay type: biochemical
T4 construct: purchased Reaction Biology (HotSpot contract assay)

[8] = molecular target: T5, BLK (Homo sapiens, UniProt P51451); experiment: HotSpot in vitro kinase radiometric assay; assay type: biochemical
T5 construct: purchased Reaction Biology (HotSpot contract assay)
Method in brief: (§1)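 Product formation was detected via radiolabelled phosphate transferred from ɣ-ATP (32P or 33P) and captured on filter paper after spotting. The kinase reactions included substrate, cofactors and compound, with no antibodies or coupling enzymes involved.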

[9] = molecular target: T6, c-Src (Homo sapiens, UniProt P12931); experiment: HotSpot in vitro kinase radiometric assay; assay type: biochemical
T6 construct: purchased Reaction Biology (HotSpot contract assay)
Method in brief: as §1

[10] = molecular target: T7, LYN B (Homo sapiens, UniProt P07948); experiment: HotSpot in vitro kinase radiometric assay; assay type: biochemical
T7 construct: purchased Reaction Biology (HotSpot contract assay)
Method in brief: as §1

[11] = molecular target: T8, PDK4/PDKH4 (Homo sapiens, UniProt Q16654); experiment: HotSpot in vitro kinase radiometric assay; assay type: biochemical
T8 construct: purchased Reaction Biology (HotSpot contract assay)
Method in brief: as §1

[12] = molecular target: T9, PDK2/PDHK2 (Homo sapiens, UniProt Q15119); experiment: HotSpot in vitro kinase radiometric assay; assay type: biochemical
T9 construct: purchased Reaction Biology (HotSpot contract assay)
Method in brief: as §1

[13] = molecular target: DDR1 (Homo sapiens, UniProt Q08345); experiment: HotSpot in vitro kinase radiometric assay; assay type: biochemical; parameters: purchased Reaction Biology (HotSpot contract assay)
[14] = molecular target: T10, TRKA (Homo sapiens, UniProt P04629); experiment: HotSpot in vitro kinase radiometric assay; assay type: biochemical
T10 construct: purchased Reaction Biology (HotSpot contract assay)
Method in brief: as §1

[15] = molecular target: T11, PASK (Homo sapiens, UniProt Q96RG2); experiment: HotSpot in vitro kinase radiometric assay; assay type: biochemical
T11 construct: purchased Reaction Biology (HotSpot contract assay)
Method in brief: as §1

T1 sequence (P07947 whole entry): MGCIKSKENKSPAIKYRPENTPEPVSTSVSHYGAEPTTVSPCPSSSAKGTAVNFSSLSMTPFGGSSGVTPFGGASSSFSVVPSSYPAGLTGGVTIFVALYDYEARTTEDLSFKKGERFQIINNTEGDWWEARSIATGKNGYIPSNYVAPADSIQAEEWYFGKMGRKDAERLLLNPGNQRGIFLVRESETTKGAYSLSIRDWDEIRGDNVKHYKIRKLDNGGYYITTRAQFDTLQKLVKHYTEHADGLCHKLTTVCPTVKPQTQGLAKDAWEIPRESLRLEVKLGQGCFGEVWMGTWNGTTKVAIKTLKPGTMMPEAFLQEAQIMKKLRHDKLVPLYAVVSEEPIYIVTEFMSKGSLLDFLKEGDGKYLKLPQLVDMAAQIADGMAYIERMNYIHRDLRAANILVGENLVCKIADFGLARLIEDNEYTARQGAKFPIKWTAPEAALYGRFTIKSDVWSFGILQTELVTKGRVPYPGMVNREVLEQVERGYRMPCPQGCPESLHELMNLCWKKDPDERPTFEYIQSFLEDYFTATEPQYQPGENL
T7 sequence (P07948 1-491 isoform P07948-2): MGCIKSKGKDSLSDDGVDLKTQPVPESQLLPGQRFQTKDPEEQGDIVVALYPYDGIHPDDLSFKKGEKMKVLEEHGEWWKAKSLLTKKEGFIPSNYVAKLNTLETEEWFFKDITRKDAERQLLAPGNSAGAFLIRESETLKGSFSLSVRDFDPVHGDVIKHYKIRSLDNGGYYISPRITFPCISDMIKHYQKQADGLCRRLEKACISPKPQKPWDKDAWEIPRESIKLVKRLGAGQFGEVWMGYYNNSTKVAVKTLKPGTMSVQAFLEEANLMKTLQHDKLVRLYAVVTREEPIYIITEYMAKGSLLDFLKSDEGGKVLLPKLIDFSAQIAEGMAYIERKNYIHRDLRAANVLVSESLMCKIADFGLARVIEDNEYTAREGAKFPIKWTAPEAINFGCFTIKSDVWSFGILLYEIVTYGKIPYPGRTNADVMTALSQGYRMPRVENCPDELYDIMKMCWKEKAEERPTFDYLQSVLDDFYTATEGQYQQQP
T8 sequence (Q16654 whole entry): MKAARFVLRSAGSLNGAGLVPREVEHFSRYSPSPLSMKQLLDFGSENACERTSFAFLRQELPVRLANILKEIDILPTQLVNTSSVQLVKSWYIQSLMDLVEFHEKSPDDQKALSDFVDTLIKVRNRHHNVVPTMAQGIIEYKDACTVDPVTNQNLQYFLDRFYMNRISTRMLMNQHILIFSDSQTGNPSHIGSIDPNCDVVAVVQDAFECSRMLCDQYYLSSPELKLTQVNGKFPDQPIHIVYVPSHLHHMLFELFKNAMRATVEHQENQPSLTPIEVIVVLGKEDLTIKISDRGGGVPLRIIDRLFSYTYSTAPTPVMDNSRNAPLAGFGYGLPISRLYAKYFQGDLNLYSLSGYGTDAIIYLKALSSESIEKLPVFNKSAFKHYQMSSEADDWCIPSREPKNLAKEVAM
T10 sequence (P04629 33-796): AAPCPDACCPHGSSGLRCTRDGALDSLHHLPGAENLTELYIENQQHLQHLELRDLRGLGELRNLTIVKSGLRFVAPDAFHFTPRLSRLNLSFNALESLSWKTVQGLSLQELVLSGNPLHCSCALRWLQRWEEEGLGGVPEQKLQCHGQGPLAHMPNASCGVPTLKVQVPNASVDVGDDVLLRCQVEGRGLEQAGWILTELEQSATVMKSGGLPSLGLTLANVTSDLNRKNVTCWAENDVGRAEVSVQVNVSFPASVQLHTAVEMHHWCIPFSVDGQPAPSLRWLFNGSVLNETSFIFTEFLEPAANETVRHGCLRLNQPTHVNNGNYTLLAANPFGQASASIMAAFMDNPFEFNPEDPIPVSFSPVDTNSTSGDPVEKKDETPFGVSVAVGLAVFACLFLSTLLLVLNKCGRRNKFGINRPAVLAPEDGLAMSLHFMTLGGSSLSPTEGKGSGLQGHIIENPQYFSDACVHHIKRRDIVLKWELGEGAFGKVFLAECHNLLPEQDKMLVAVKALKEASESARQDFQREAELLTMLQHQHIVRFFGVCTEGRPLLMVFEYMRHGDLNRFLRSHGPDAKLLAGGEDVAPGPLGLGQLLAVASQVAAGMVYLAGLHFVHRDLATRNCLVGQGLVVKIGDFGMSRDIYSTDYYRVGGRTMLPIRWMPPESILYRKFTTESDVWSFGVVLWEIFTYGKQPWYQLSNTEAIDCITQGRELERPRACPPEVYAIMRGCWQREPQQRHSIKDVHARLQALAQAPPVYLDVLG
T6 sequence (P12931 whole entry): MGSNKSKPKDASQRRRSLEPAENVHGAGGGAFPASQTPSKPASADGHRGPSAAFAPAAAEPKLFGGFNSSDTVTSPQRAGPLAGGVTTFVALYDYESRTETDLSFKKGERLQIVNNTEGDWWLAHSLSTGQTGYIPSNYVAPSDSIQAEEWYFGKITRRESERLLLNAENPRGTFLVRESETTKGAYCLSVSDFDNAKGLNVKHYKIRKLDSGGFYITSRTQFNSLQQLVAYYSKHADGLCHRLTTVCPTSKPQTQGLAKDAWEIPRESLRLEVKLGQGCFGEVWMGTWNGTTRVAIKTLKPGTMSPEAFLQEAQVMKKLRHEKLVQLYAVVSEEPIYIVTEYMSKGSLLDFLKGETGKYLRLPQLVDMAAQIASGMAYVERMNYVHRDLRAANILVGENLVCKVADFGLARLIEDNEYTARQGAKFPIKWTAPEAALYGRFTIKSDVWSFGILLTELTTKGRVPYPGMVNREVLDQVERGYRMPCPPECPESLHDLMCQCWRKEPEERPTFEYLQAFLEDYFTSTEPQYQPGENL
Chain of DDR1 (Q08345 19-913): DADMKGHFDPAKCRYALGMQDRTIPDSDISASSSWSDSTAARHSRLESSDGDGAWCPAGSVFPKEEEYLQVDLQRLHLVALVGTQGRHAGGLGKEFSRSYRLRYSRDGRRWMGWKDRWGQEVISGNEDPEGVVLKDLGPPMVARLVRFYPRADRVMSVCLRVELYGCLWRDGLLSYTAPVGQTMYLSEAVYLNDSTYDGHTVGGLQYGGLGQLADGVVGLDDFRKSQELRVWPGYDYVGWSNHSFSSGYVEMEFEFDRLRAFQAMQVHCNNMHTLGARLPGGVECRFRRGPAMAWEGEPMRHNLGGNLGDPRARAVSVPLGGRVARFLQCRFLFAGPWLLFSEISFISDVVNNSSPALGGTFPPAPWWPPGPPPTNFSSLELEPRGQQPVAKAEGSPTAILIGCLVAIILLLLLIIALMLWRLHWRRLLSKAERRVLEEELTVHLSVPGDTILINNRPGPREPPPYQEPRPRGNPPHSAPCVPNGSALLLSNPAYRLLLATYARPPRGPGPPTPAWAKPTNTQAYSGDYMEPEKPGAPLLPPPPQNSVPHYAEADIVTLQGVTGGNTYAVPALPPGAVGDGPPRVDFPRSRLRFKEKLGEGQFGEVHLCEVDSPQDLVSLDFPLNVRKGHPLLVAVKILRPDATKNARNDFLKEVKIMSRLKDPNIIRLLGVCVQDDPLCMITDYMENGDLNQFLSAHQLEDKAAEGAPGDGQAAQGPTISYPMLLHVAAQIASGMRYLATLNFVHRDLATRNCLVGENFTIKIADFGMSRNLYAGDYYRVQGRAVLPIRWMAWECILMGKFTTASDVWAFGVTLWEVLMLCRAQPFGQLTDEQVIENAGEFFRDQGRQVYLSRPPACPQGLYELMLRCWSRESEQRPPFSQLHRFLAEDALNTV
T5 sequence (P51451 whole entry): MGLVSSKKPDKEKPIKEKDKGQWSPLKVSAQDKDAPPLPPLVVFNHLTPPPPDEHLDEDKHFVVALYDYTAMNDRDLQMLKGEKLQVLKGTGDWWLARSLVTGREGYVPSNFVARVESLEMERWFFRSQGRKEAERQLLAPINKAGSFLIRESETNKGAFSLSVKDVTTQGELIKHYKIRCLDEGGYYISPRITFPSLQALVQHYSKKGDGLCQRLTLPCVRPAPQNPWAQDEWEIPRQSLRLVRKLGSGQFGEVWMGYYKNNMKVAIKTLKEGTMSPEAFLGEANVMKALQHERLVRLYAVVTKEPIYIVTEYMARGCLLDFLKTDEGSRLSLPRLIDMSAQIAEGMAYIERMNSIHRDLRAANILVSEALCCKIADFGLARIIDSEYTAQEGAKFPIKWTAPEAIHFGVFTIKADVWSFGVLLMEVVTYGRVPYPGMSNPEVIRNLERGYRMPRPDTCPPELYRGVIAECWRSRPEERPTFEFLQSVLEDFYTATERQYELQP
T4 sequence (Q16288 32-839): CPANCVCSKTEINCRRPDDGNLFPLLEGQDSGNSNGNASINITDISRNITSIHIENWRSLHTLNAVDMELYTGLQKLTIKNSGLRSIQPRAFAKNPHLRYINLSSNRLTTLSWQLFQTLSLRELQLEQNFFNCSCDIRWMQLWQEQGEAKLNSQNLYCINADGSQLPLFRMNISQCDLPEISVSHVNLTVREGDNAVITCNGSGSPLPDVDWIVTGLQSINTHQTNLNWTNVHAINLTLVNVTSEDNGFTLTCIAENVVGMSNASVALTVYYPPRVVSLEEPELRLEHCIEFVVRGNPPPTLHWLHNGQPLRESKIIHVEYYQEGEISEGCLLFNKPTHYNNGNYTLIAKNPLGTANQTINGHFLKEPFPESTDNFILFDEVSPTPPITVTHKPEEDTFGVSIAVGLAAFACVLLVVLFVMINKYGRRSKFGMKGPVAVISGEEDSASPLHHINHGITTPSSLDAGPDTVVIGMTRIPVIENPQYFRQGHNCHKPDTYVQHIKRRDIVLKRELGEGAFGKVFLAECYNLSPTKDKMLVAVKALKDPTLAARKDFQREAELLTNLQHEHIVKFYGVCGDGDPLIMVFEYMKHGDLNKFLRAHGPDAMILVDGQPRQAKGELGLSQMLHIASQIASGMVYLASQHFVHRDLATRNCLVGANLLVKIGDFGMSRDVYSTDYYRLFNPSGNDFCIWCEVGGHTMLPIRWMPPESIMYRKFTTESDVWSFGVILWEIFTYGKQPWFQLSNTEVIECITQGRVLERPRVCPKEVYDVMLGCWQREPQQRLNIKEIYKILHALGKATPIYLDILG

With `CCNC(=O)c1noc(-c2cc(Cl)c(O)cc2O)c1-c1ccc(OC)cc1` [VER-50589] the “% Enzyme Activity (relative to DMSO controls)” value ([1]; YES/YES1, 10uM, ATP 50 uM, Data 1, Data 2) was 96.18%, the remaining activity at 10 µM ([1]; YES/YES1, 10uM, ATP 50 uM, Data 1, Data 2, read-out: % Enzyme Activity (relative to DMSO controls)) was 102% and the inhibition at 10 µM ([1]; read-out: % inhibition at 10 uM: YES, 10 μM, Fig 6C median ± standard deviation (n = 2)) was 1 ± 4%. For the same compound, the “% Enzyme Activity (relative to DMSO controls)” value ([2]; ABL1, 10uM, ATP 40 uM, Data 1, Data 2) was 99.15%, the remaining activity at 10 µM ([2]; ABL1, 10uM, ATP 40 uM, Data 1, Data 2, read-out: % Enzyme Activity (relative to DMSO controls)) was 96% and the inhibition at 10 µM ([2]; read-out: % inhibition at 10 uM: ABL1, 10 μM, Fig 6C median ± standard deviation (n = 2)) was 2 ± 2%. The IC50 ([3]; Fig 6C, IC50 against HSP90 shown for comparison, source not given) was 21 nM, the “pActivity, HSP90AA1” value ([3]; average of reported values, ref ChEMBL23 (accessed: 23/08/2018)) was 7.55 and the “% Enzyme Activity (relative to DMSO controls)” value ([4]; ABL2/ARG, 10uM, ATP 30 uM, Data 1, Data 2) was 107.1%. The remaining activity at 10 µM ([4]; ABL2/ARG, 10uM, ATP 30 uM, Data 1, Data 2, read-out: % Enzyme Activity (relative to DMSO controls)) was 99.9%, the inhibition at 10 µM ([4]; read-out: % inhibition at 10 uM: ABL2, 10 μM, Fig 6C median ± standard deviation (n = 2)) was -4 ± 5% and the “pActivity, HSP90AB1” value [5] was 7.55. The “% Enzyme Activity (relative to DMSO controls)” value ([6]; FYN, 10uM, ATP 30 uM, Data 1, Data 2) was 116.15%, the remaining activity at 10 µM ([6]; FYN, 10uM, ATP 30 uM, Data 1, Data 2, read-out: % Enzyme Activity (relative to DMSO controls)) was 109% and the inhibition at 10 µM ([6]; read-out: % inhibition at 10 uM: FYN, 10 μM, Fig 6C median ± standard deviation (n = 2)) was -13 ± 5%. For the same compound, the “% Enzyme Activity (relative to DMSO controls)” value ([7]; TRKC, 10uM, ATP 100 uM, Data 1, Data 2) was 86.46%, the remaining activity at 10 µM ([7]; TRKC, 10uM, ATP 100 uM, Data 1, Data 2, read-out: % Enzyme Activity (relative to DMSO controls)) was 94.2% and the inhibition at 10 µM ([7]; read-out: % inhibition at 10 uM: TRKC, 10 μM, Fig 6C median ± standard deviation (n = 2)) was 10 ± 5%. The “% Enzyme Activity (relative to DMSO controls)” value ([8]; BLK, 10uM, ATP 10 uM, Data 1, Data 2) was 99.82%, the remaining activity at 10 µM ([8]; BLK, 10uM, ATP 10 uM, Data 1, Data 2, read-out: % Enzyme Activity (relative to DMSO controls)) was 94% and the inhibition at 10 µM ([8]; read-out: % inhibition at 10 uM: BLK, 10 μM, Fig 6C median ± standard deviation (n = 2)) was 3 ± 4%. The “% Enzyme Activity (relative to DMSO controls)” value ([9]; c-Src, 10uM, ATP 15 uM, Data 1, Data 2) was 103.77% and 68.69%, the inhibition at 10 µM ([9]; read-out: % inhibition at 10 uM: SRC, 10 μM, Fig 6C median ± standard deviation (n = 2)) was 14 ± 25% and the “% Enzyme Activity (relative to DMSO controls)” value ([10]; LYN B, 10uM, ATP 20 uM, Data 1, Data 2) was 103.45%. The remaining activity at 10 µM ([10]; LYN B, 10uM, ATP 20 uM, Data 1, Data 2, read-out: % Enzyme Activity (relative to DMSO controls)) was 105%, the inhibition at 10 µM ([10]; read-out: % inhibition at 10 uM: LYN B, 10 μM, Fig 6C median ± standard deviation (n = 2)) was -4 ± 1% and the “% Enzyme Activity (relative to DMSO controls)” value ([11]; PDK4/PDKH4, 10uM, ATP 30 uM, Data 1, Data 2) was -0.13% and 4.42%. The inhibition at 10 µM ([11]; read-out: % inhibition at 10 uM: PDK4, 10 μM, Fig 6C median ± standard deviation (n = 2)) was 98 ± 3%, the “% Enzyme Activity (relative to DMSO controls)” value ([12]; PDK2/PDHK2, 10uM, ATP 15 uM, Data 1, Data 2) was 9.11% and 0.34% and the inhibition at 10 µM ([12]; read-out: % inhibition at 10 uM: PDK2, 10 μM, Fig 6C median ± standard deviation (n = 2)) was 95 ± 6%. For the same compound, the “% Enzyme Activity (relative to DMSO controls)” value ([13]; DDR1, 10uM, ATP 100 uM, Data 1, Data 2) was 93.93%, the remaining activity at 10 µM ([13]; DDR1, 10uM, ATP 100 uM, Data 1, Data 2, read-out: % Enzyme Activity (relative to DMSO controls)) was 90.3% and the inhibition at 10 µM ([13]; read-out: % inhibition at 10 uM: DDR1, 10 μM, Fig 6C median ± standard deviation (n = 2)) was 8 ± 3%. The “% Enzyme Activity (relative to DMSO controls)” value ([14]; TRKA, 10uM, ATP 100 uM, Data 1, Data 2) was 96.8%, the remaining activity at 10 µM ([14]; TRKA, 10uM, ATP 100 uM, Data 1, Data 2, read-out: % Enzyme Activity (relative to DMSO controls)) was 100% and the inhibition at 10 µM ([14]; read-out: % inhibition at 10 uM: TRKA, 10 μM, Fig 6C median ± standard deviation (n = 2)) was 2 ± 2%. For the same compound, the “% Enzyme Activity (relative to DMSO controls)” value ([15]; PASK, 10uM, ATP 50 uM, Data 1, Data 2) was 102.75%, the remaining activity at 10 µM ([15]; PASK, 10uM, ATP 50 uM, Data 1, Data 2, read-out: % Enzyme Activity (relative to DMSO controls)) was 109% and the inhibition at 10 µM ([15]; read-out: % inhibition at 10 uM: PASK, 10 μM, Fig 6C median ± standard deviation (n = 2)) was -6 ± 5%.
